The text below walks through data of PMC8637573, “EWS–FLI1‐targeting peptide identifies Ewing sarcoma tumor boundaries and lymph node metastasis via near‐infrared imaging” (Molecular Oncology, 2021).

In one assay the test system is A673 cells. Nature of the assay: Living cell fluorescence imaging. It is filed as cell-based, human. Conditions: A673 cells pre‐incubated with 50 μM E9R for 1 h, then 10 μM CS2‐N‐E9R. As to the method:
E/F‐positive ES cells (A673) and E/F‐negative sarcoma cells (143B) were then seeded into confocal culture dishes at a density of 2 × 10^5 cells each dish in 1.5‐mL medium containing 10% FBS. After 24 h of cell attachment, the dishes were then washed three times with 1 mL PBS. The dishes were then cultured in medium with 10 μM probe CS2‐N‐E9R. The intracellular probe aggregations were then observed by Leica‐LCS‐SP8‐STED confocal microscope (Leica, Wetzlar, Germany).
E/F‐positive ES cells (A673 cells, RD‐ES cells) and E/F‐negative osteosarcoma cells (143B cells), hepatoma carcinoma cells (Hep3B cells), and […] embryonic human kidney cells (293T cells) were seeded into confocal culture dishes. All the dishes were incubated with 10 μM CS2‐N‐E9R for 1 h and washed three times with PBS buffer before imaging, except for the control and blocking groups. For the control group, A673 cells were incubated with 10 μM control probe CS2‐N‐E. For the blocking group, A673 cells were pre‐incubated with 50 μM peptide E9R as a blocking agent for 1 h, after that incubated with 10 μM probe CS2‐N‐E9R.

For the next assay, the target named is T1, E/F in A673 cells (Homo sapiens, UniProt Q01543+Q01844).
T1 construct: endogenous in cells; host or cells: A673 cells (fixed and permeabilised in A8, living in A10)
T1 sequence (Q01844+Q01543 with tags, fused parts or gaps): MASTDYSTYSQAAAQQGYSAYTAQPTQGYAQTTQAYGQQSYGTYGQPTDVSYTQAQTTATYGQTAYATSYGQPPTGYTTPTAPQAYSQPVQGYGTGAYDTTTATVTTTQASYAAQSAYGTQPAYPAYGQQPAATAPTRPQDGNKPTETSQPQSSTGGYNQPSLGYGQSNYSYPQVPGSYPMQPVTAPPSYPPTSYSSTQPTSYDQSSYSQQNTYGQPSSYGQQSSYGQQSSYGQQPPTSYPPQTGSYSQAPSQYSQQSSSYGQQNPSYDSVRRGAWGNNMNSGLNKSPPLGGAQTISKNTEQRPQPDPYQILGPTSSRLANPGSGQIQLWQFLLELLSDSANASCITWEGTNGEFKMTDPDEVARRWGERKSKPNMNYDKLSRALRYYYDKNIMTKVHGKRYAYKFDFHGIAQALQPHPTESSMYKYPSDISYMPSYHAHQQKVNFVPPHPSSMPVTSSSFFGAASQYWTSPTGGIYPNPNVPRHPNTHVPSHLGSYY
Put plainly: Binding affinity test (competition of E9R with CS2‐N‐E9R). Conditions: E9R 4 × 10^−3 M to 4 × 10^−9 M incubated 1 h, washed, then 4 μM CS2‐N‐E9R 40 min, Odyssey Infrared Imager, average of quadruple wells, read-out: IC50 for the inhibition of CS2‐N‐E9R binding E/F. As to the method:
As to the binding affinity test, serial concentrations of E9R (from 4 × 10^−3 M to 4 × 10^−9 M) were prepared as competitors for CS2‐N‐E9R. A673 cells were seeded into 96‐well Black Polystyrene Assay plate at a concentration of 4 × 10^3 cells per well with 150 μL medium containing 10% FBS at incubator for 24 h. Different concentrations of E9R were added into palate and incubated for 1 h, and then washed three times with PBS (pH 7.4). 4 μM of CS2‐N‐E9R was then added into each well and incubated for another 40 min. After that the samples were washed and imaged with Odyssey® Infrared Imager. Each data point represents the average value of quadruple wells. Data were analyzed using GRAPHPAD PRISM (GraphPad Software, San Diego, CA, USA). IC50 values, which were defined as the concentration of competitive agent required to inhibit 50% of CS2‐N‐E9R binding, were calculated.

Residues, ends and D or L forms follow the SMILES beside them.

As to `CC[C@H](C)[C@H](NC(=O)[C@@H](NC(=O)[C@H](C)NC(=O)[C@H](CC(=O)O)NC(=O)[C@H](CC(C)C)NC(=O)[C@@H]1CCCN1C(=O)[C@@H]1CCCN1C(=O)[C@@H]1CCCN1)C(C)C)C(=O)N[C@@H](CCC(=O)O)C(=O)N[C@@H](C)C(=O)O` [E9R] (H-PPPLDAVIEA-OH; N-terminus assumed), in the assay on A673 cells, the “fluorescence of CS2‐N‐E9R after pretreatment with blocking agent” value was “fluorescence muted”. For the same compound, the IC50 at E/F in A673 cells was determined as 3.69 µM.
